# Article PMC11597207, “Synthesis and Anti-Inflammatory and Analgesic Potentials of Ethyl 2-(2,5-Dioxo-1-Phenylpyrrolidin-3-yl)-2-Methylpropanoate” (Pharmaceuticals, 2024)
# Key:
# [1] = system: carrageenan-induced paw edema; test: Carrageenan-induced paw edema model; type: in vivo; settings: mice, dose 10 mg/kg
# Procedure: The anti-inflammatory activity of MAK01 was evaluated through a carrageenan-induced paw edema model. The mice, with weights ranging from 25 to 30 g, were separated into five distinct groups, these being Vehicle Group 1, Aspirin Group 2, and different concentrations of MAK01 in Groups 3–5. Each of these groups comprised five mice. The negative control group in the experiment received a specific solution comprising normal saline, DMSO, and Tween-80. The mixture contained 94% normal saline, 5% DMSO, and 1% Tween-80, delivered at a concentration of 10 mL per kg. In contrast, the positive control group in the assay received the comparator aspirin at a precise dose of 10 mg/kg. The test samples were administered at doses of 10 mg/kg, 20 mg/kg, and 30 mg/kg, given intra-peritoneally. After 30 min, a 2% carrageenan suspension (0.2 mL) was administered to each mouse in every group via a subcutaneous injection in the hind paw. In the experiment, a plethysmometer was used to precisely measure inflammation and edema. These measurements were taken at multiple time points both prior to and following the carrageenan administration. Specifically, the readings were recorded at 1, 2, 3, 4, and 5 h intervals to monitor the progress of the inflammatory response and paw swelling. These obtained results were then compared against the outcomes from the negative control group. The gathered data from the experiment, relating to the impact of the newly synthesized compounds on paw edema, were carefully processed to derive the percentage of edema inhibition. Using the below equation, the percent inhibition was calculated. % Inhibition=Ce−Te/Ce×100
# In the formula, ‘Ce’ refers to the control group paw edema volume, while ‘Te’ denotes test groups’ paw edema volume.
# mice = test: Hot plate antinociceptive test; type: in vivo; settings: dose 5 mg/kg
# 5-LOX = target: T1, 5-LOX (Homo sapiens, UniProt P09917); test: 5-LOX inhibitory assay; type: biochemical; settings: read-out: 5-LOX percent inhibition
# T1 construct: purchased Cayman Chemical Batch No.: A3457
# T1 sequence (P09917 1-674): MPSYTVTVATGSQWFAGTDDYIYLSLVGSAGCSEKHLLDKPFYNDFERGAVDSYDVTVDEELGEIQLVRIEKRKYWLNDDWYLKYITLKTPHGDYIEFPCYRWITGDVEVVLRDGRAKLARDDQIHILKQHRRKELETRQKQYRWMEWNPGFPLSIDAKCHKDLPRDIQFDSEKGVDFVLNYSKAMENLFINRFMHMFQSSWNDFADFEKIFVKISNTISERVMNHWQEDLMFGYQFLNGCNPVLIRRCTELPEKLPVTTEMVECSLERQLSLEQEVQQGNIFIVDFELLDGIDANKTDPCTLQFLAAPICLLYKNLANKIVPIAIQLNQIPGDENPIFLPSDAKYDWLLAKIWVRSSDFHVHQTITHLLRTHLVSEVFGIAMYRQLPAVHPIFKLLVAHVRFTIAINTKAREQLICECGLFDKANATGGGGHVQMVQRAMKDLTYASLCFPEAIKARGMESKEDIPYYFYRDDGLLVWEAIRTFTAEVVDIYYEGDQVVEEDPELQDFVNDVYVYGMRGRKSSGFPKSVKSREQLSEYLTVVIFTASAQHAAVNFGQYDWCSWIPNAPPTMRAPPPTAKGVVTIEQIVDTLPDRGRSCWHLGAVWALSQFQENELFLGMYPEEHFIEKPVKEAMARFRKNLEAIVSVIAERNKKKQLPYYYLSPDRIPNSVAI
# Procedure: The activity of MAK01 against the 5-LOX enzyme was investigated using a human recombinant form of 5-LOX [47]. To begin the 5-LOX activity assay, a 10,000 U/mL solution of 5-LOX was prepared in a phosphate buffer with a pH of 6.3. A range of concentrations of the test compounds in the same buffer were prepared for assay. As a substrate for 5-LOX, linoleic acid (80 mM) was diluted with ethyl alcohol and used in the assay. The experiment involved mixing the same amount of both the enzyme solution and the test sample, such as mixing 0.25 mL 5-LOX with 0.25 mL of the compound, both dissolved in buffer. The mixing was followed by incubation at 25 °C for 5 to 10 min. Subsequently, 0.10 mL of the linoleic acid solution was added and allowed to incubate for another 5 min. The absorbance was measured using a UV–visible spectrophotometer at a wavelength of 234 nm, and the percent inhibition was calculated based on the absorbance readings. The same procedure was repeated for different concentrations of the test samples. Zileuton, as a reference drug, was used in comparisons. Using the following formula, the percent inhibition for each sample was calculated: % Inhibition=Abs. of Control−Abs. of Sample/Abs. of Control×100
structure (smiles),measurement,setting,value
"CC(=O)Oc1ccccc1C(=O)O [Aspirin, aspirin, reference compound]",Paw Edema Inhibition in Percent,[1]; 1 h,47.46 ± 0.80%
same,Paw Edema Inhibition in Percent,[1]; 2 h,54.42 ± 1.10%
same,Paw Edema Inhibition in Percent,[1]; 3 h,55.23 ± 0.73%
same,Paw Edema Inhibition in Percent,[1]; 4 h,56.22 ± 1.34%
same,Paw Edema Inhibition in Percent,[1]; 5 h,57.57 ± 1.23%
"CN1CC[C@]23c4c5ccc(O)c4O[C@H]2[C@@H](O)C=C[C@H]3[C@H]1C5 [Morphine, morphine, reference compound]",Latency Time (Seconds) on Hot Plate,mice; 30 min,13.83 ± 0.63 s
same,Latency Time (Seconds) on Hot Plate,mice; 60 min,13.52 ± 0.23 s
same,Latency Time (Seconds) on Hot Plate,mice; 90 min,13.29 ± 0.78 s
same,Latency Time (Seconds) on Hot Plate,mice; 120 min,12.92 ± 0.56 s
same,Latency Time (Seconds) on Hot Plate,mice; 150 min,12.59 ± 0.41 s
"CC(c1cc2ccccc2s1)N(O)C(N)=O (stereo not drawn) [Zileuton, zileuton, reference compound]",inhibition at 62.5 µg/mL,5-LOX,74%
same,inhibition at 125 µg/mL,5-LOX,78%
same,inhibition at 250 µg/mL,5-LOX,81%
same,inhibition at 500 µg/mL,5-LOX,85%
same,inhibition at 1000 µg/mL,5-LOX,94%
